Experimental data taken from paper PMC9504950, “In Vitro and In Silico Analyses of New Cinnamid and Rosmarinic Acid-Derived Compounds Biosynthesized in Escherichia coli as Leishmania amazonensis Arginase Inhibitors” (Pathogens, 2022).
Values joined by “and” are separate entries in the source; they are usually repeats but may differ in a detail not shown here. Identical values can stand only once. Like-named read-outs stand apart in the source and are kept apart here. Blank lines part the entries; values can stand above or below the molecule they belong to.

How the values were obtained:
[1] = target: T1, L. amazonensis arginase (L-ARG) (Leishmania amazonensis, UniProt O96394); experiment: Recombinant L. amazonensis arginase (L-ARG) inhibition, IC50; format: biochemical; conditions: for IC50: mean ± SEM; for fold decrease of enzyme inhibition relative to compound 4: compared with compound 4
Method: (§1) Recombinant L-ARG was expressed and purified as previously described. A stock solution of 70 mM was prepared in DMSO and was stored at −20 °C for each compound just before the experiment. The concentration that inhibited 50% of the catalytic activity of the enzyme (IC50) was determined using an inhibitor concentration from 200 μM to 0.05 μM; the concentrations were obtained via a serial dilution in water (1:4). The kinetics were determined using three concentrations of the substrate and three concentrations of inhibitor, as previously described. Two independent experiments were performed in triplicate with a coefficient of nonlinear regression R^2 ≥ 0.85. The sigmoidal model (log IC50) was used to determine the IC50 using GraphPad Prism 7 software for Windows (San Diego, CA, USA).

[2] = system: promastigotes and amastigotes of L. amazonensis; conditions: cited from earlier work
L. amazonensis = system: L. amazonensis; set-up: method as in PMID 24906989; conditions: BALB/c mice, cutaneous leishmaniasis; cited from earlier work
[3] = target: T1, L. amazonensis arginase (L-ARG); experiment: Kinetics of arginase inhibition (Dixon and Cornish-Bowden plots); format: biochemical; conditions: for Mechanism of Inhibition: Dixon and Cornish-Bowden plots; for Ki: Dixon plots, L-arginine 100, 50 and 25 mM
Method: The enzyme kinetics were performed to determine the mechanism of inhibition and the dissociation constant (Ki) of the compounds via the simultaneous analysis of the Dixon and Cornish-Bowden plots. The Ki inhibition constants (complex EI), which refer to the equilibriums established between the […] in the presence of an inhibitor (I), were determined (Table 1).
as §1
Figure 1 Kinetics of the arginase inhibition by compounds 2–4, 7, and 9. The mechanism of action was determined by an analysis of the Dixon (A) and Cornish-Bowden plots (B); the Ki constant was measured using Dixon plots by calculating the X values at the intersection point of the lines. […] Each drawn point represents the mean of three independent experiments (n = 3) performed in duplicate.

[4] = target: T1, L. amazonensis arginase (L-ARG); conditions: cited from earlier work
[5] = recombinant L-ARG, read-out: IC50

Structure (SMILES): COc1cc(/C=C/C(=O)O)ccc1O [ferulic acid]
- activity against the promastigotes and amastigotes of L. amazonensis [2]: active
- lesion size and parasite burden (L. amazonensis): effective in reducing the lesion size and parasite burden

Structure (SMILES): O=C(/C=C/c1ccc(O)c(O)c1)O[C@@H]1C[C@](O)(C(=O)O)C[C@@H](O)[C@H]1O [chlorogenic acid]
- activity against the promastigotes and amastigotes of L. amazonensis [2]: active

Structure (SMILES): O=C(O)/C=C/c1ccc(O)c(O)c1 [caffeic acid]
- L-ARG inhibition (in words) [4]: inhibitory profile
- activity against the promastigotes and amastigotes of L. amazonensis [2]: active
- lesion size and parasite burden (L. amazonensis): effective in reducing the lesion size and parasite burden

Structure (SMILES): O=C(/C=C/c1ccc(O)cc1)O[C@H](Cc1ccccc1)C(=O)O [Compound 1]
- IC50 ([1]; recombinant L-ARG): Inactive

Structure (SMILES): C[C@@H]1O[C@@H](O[C@@H]2[C@@H](O)[C@H](OCCc3ccc(O)c(O)c3)O[C@H](CO)[C@H]2OC(=O)/C=C/c2ccc(O)c(O)c2)[C@H](O)[C@H](O)[C@H]1O [verbascoside]
- L-ARG inhibition (in words) [4]: inhibits
- activity against promastigote and intracellular amastigotes of the parasite [2]: active

Structure (SMILES): O=C(/C=C/c1ccc(O)c(O)c1)O[C@H](Cc1ccc(O)c(O)c1)C(=O)O [rosmarinic acid]
- L-ARG inhibition (in words) [4]: inhibitory profile
- activity against the promastigotes and amastigotes of L. amazonensis [2]: active
- lesion size and parasite burden (L. amazonensis): effective in reducing the lesion size and parasite burden

Structure (SMILES): O=C(CCc1ccc(O)c(O)c1)O[C@H](Cc1ccccc1)C(=O)O [Compound 2]
- Mechanism of Inhibition [3]: Noncompetitive
- Ki [3]: 5.7 ± 0.7 µM
- IC50 [1, 5]: 2.8 ± 0.9 µM

The next lines start with the values.

- IC50 ([1]; recombinant L-ARG): Inactive
Structure (SMILES): O=C(CCc1ccc(O)cc1)Nc1cc(Cl)ccc1C(=O)O [Compound 10]

- Mechanism of Inhibition [3]: Noncompetitive
- Ki [3]: 3.9 ± 0.4 µM
- IC50 [1, 5]: 3 ± 0.2 µM
Structure (SMILES): O=C(CCc1ccc(O)c(O)c1)O[C@H](Cc1ccc(O)c(O)c1)C(=O)O [Compound 3]

- Mechanism of Inhibition [3]: Noncompetitive
- Ki [3]: 2 ± 0.6 µM
- IC50 [1, 5]: 1.9 ± 0.7 µM
Structure (SMILES): O=C(CCc1ccc(O)c(O)c1)O[C@H](Cc1ccc(O)cc1)C(=O)O [Compound 4]

- IC50 ([1]; recombinant L-ARG): Inactive
Structure (SMILES): O=C(CCc1ccc(O)cc1)O[C@H](Cc1ccccc1)C(=O)O [Compound 6]

- IC50 ([1]; recombinant L-ARG): Inactive
Structure (SMILES): O=C(/C=C/c1ccc(O)cc1)Nc1cc(Cl)ccc1C(=O)O [Compound 8]

- Mechanism of Inhibition [3]: Competitive
- Ki [3]: 4.6 ± 1.7 µM
- IC50 [1, 5]: 5.5 ± 0.5 µM
Structure (SMILES): O=C(/C=C/c1ccc(O)c(O)c1)Nc1cc(F)c(F)cc1C(=O)O [Compound 9]

- fold decrease of enzyme inhibition relative to compound 4 [1]: at least 100 times
- L-ARG inhibition (in words) ([1]; recombinant L-ARG): weak inhibition
- IC50 [1, 5]: > 200 µM
Structure (SMILES): O=C(CCc1ccc(O)cc1)O[C@H](Cc1ccc(O)cc1)C(=O)O [Compound 5]

- Mechanism of Inhibition [3]: Noncompetitive
- Ki [3]: 74 ± 8 µM
- fold decrease of enzyme inhibition relative to compound 4 [1]: approximately 20 times
- IC50 [1, 5]: 36.2 µM and 36 µM
Structure (SMILES): O=C(O)CC(OC(=O)/C=C/c1ccc(O)c(O)c1)C(=O)O (stereo not shown) [Compound 7]
